Experimental findings from patent US20170350876A1, “BIOSENSOR FOR SINGLE CELL ANALYSIS” (priority 2016, published 2017) are described below.

Experiment [1] has as its system MCF-7 single cells. Description: Single cell impedance monitoring on the biosensor (EDR single cell analysis). In kind it is cell-based, human. The following applies: for mean impedance changes of the single cells over time, in words: 2.1 and 10.5 nM MBZ, 0.1 and 1 nM PTX, nano-roughened biosensor, about 4 kHz, FIG. 12A. The procedure: MCF-7 cell lines which were acquired to be used in this example. The cell lines have been separated from grad I human breast tumors. The cell lines were maintained at 37° C. in an incubator (about 5% CO2, about 95% clean air) and in RPMI-1640 medium supplemented with about 5% fetal bovine serum and about 1% penicillin/streptomycin. The fresh medium was replaced every other day. In order to detach cell from the substrate and become suspended in cell solution, cells was trypsynized. As performing cell culturing process at room temperature of about 20° C. -22° C., trypsinization should be done in less than about 6 minutes to minimize the influence of trypsinization. The cell solution was dropped onto an exemplary biosensor, which was fabricated according to EXAMPLE 1, and then the biosensor was maintained in an incubator for about 4 hours to reach cells attachment on the biosensor surface and trapping single cells within microwells of the biosensor.
Exemplary biosensors with cell solutions dropped onto them (as described herein in EXAMPLE 2) were maintained in an incubator for about 4 hours to reach cells attachment on biosensors surface. MBZ and PTX antitubulin drugs were added into the microwells containing single cells in low concentrations (about 2.1 nM for MBZ and about 0.1 nM for PTX) and high concentrations (about 10.5 nM for MBZ and about 1 nM for PTX) concentrations. The signals were recorded 2 hours, 5 hours, 8 hours, 20 hours, 32 hours, and 44 hours after drug addition that means 6 hours, 9 hours, 12 hours, 24 hours, […]. Electrical signals Measurements were collected in frequencies ranged from about 1 KHz to about 60 KHz by impedance measurement system (electrical signal extraction board) at about every 2 hours. A small “ac” sinusoidal signal was applied to the sensors. For different frequencies of the “ac” signal, the sensitivity of the sensor would vary which is called as the frequency characteristics. The bias voltage of the system was about 40 mV which wasn't destructive for cellular metabolism and a series resistance was used as current limiter element. For each cell trapped in each microwell of the biosensors, four electrodes may be used for signal extraction in two states (with up-down or right-left neighbor electrodes). The final result may be the average of the several signals extracted from the different sensors on a chip (several microwells on a biosensor) to consider cellular heterogeneity and different positioning of the cells relative to the electrodes and other parameters.
FIGS. 10A-10F show impedance diagrams for a MCF-7 single cell seeded and trapped in a microwell between electrodes about 4 hours after dropping the solution containing cells, which was assumed as an initial time (T=0) for all measurement experiments. After the attachment of the cell on the region between recording or sensing electrodes (after about 4 hours), observable increment in impedance was recorded with respect to media solution covered state (curve 1001 Vs. curve 1002 in FIG. 10A). T parameter was defined as a time merit started after dropping of the cells (t=4 hours was assumed equal to T=0). Delta Z (ΔZ) may include the difference between impedance at about 4 hours after cell seeding (equal to T=0) and the 4+x^th hours (x may be equal to 2, 5, 8, etc.), divided by the impedance at T=0. Average impedance of all frequencies were used for comparison. For better comprehension of impedimetric regime, the impedance changes of the CTRL cell were plotted in subsequently next time periods (about 6th, 9th, 12th and 24th hours) with respect to the impedance of the sensor in 4th hours after dropping the cells solution that are shown by curves 1003 (at T=2 or t=6 hours), 1004 (at T=5 or t=9 hours), 1005 (at T=8 or t=12 hours), and 1006 (at T=20 or t=24 hours) in FIG. 10B. […]

In experiment [2] the test system is MCF-7 cells, cytoskeletal structure (microtubules). Briefly: Confocal imaging of drug treated single cells (anti-α-tubulin staining). The following applies: 10.5 nM MBZ or 1 nM PTX, about 20 hours after drug treatment, compared with CTRL.

For `COC(=O)Nc1nc2ccc(C(=O)c3ccccc3)cc2[nH]1` [MBZ, methyl5-benzoyl-2-benzimidazole-carbamate], the impedance reduction entry in experiment [1] (2.1 nM MBZ, T=2 hours, relative to T=0, FIG. 10C) is reported as “about 5%”; in experiment [1] (2.1 nM MBZ, T=6 hours (so in the source), relative to T=0, FIG. 10C), ~10%; in experiment [1] (2.1 nM MBZ, T=8 hours, relative to T=0, FIG. 10C), “about 15%”; in experiment [1] (2.1 nM MBZ, T=20 hours, relative to T=0, FIG. 10C), ~30%; in experiment [1] (10.5 nM MBZ, first time interval (T=2 hours), FIG. 10D) it was “about 15%”; in experiment [1] (10.5 nM MBZ, fourth time interval (T=20 hours), FIG. 10D), ~45%. Also, the impedance reduction in experiment [1] (10.5 nM MBZ, second time interval (T=6 hours as printed), FIG. 10D) was ~25%; in experiment [1] (10.5 nM MBZ, third time interval (T=8 hours), FIG. 10D), ~35%. Moreover, the “mean impedance changes of the single cells over time, in words” value in experiment [1] is reported as “continues reduction in the impedance which exhibited a linier correlation with doses of the drug”. Also, the “effect on cytoskeletal structure and mitosis (confocal images), in words” value in experiment [2] was “No entrance to even primary cycles of mitosis, degraded distribution of cytoskeleton and monoastered microtubules”.
For `CC(=O)O[C@H]1C(=O)[C@@]2(C)[C@H]([C@H](OC(=O)c3ccccc3)[C@]3(O)C[C@H](OC(=O)[C@H](O)[C@@H](NC(=O)c4ccccc4)c4ccccc4)C(C)=C1C3(C)C)[C@]1(OC(C)=O)CO[C@@H]1C[C@@H]2O` [PTX, Paclitaxel], the impedance increment result is listed as “about 10%” in experiment [1] (0.1 nM PTX, T=about 2 hours, relative to T=0, FIG. 10E); ~30% in experiment [1] (0.1 nM PTX, T=about 5 hours, relative to T=0, FIG. 10E); ~35% in experiment [1] (0.1 nM PTX, T=about 8 hours, relative to T=0, FIG. 10E); ~45% in experiment [1] (0.1 nM PTX, T=about 20 hours, relative to T=0, FIG. 10E); “about 5%” in experiment [1] (1 nM PTX (high dose), T=2 hours, FIG. 10F); ~15% in experiment [1] (1 nM PTX (high dose), T=5 hours, FIG. 10F). The impedance increment in experiment [1] (1 nM PTX (high dose), T=8 hours, FIG. 10F) was ~20%; in experiment [1] (1 nM PTX (high dose), T=20 hours, FIG. 10F), ~25%. In experiment [1], the “mean impedance changes of the single cells over time, in words” value is listed as “moderate impedance increment with dose dependent reductive regime”. In addition, the “effect on cytoskeletal structure and mitosis (confocal images), in words” value in experiment [2] was “aggregated MTs as polymerizing effect of Taxol on cytoskeletal structure which induced mitotic arrest in the cell and deformed the nucleus during the mitosis”.
